According to patent US9562031B1, “Phenethyldihydrobenzodioxolones and methods of use” (Sequoia Sciences, Inc., priority 2015, dated 2017):
Read-outs that look alike come from different tables or passages of the source. Each block holds one compound with its values, some of them ahead of it.

Legend:
[1] = tested on: M14 (amelanotic melanoma) cells; experiment: antiproliferation assay (72 h, CELLTITER 96), M14; type: cell-based, human; conditions: Homo sapiens
Outline: (§1)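 Human M14 melanoma and NCI-H460 lung carcinoma cells in RPMI-1640/10% FBS, seeded at 5×10^2–5×10^4 cells/well and adhered overnight, then exposed to seven compound concentrations for 72 h at 37 °C. Viable cells read by CellTiter 96 AQueous (MTS); IC50 = concentration giving 50% of maximal growth inhibition.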

[2] = tested on: NCI-H460 (large cell lung carcinoma) cells; experiment: antiproliferation assay (72 h, CELLTITER 96), NCI-H460; type: cell-based, human; conditions: Homo sapiens
Outline: as §1

MOLT-4 cells [3] = experiment: antiproliferation assay, MOLT-4; type: cell-based; conditions: Homo sapiens
Description: (§2) For the antiproliferation assay, NCI-H460 (large cell lung carcinoma) or M14 (amelanotic melanoma) cells were grown in RPMI-1640 with 10% FBS supplemented with L-glutamine and HEPES. Cells were seeded into 96-well plates at 5×10^2 to 5×10^4 cells/well and allowed to adhere overnight; the medium was then removed. A stock solution of test compound in DMSO was diluted in medium to generate a series of working solutions. Aliquots (100 μl) of the working solutions were then added to the appropriate test wells to expose cells to the final concentrations of compound in a total volume of 100 μl. Seven different concentrations were tested, with 2-5 wells per concentration. Camptothecin was used as a positive control; wells containing vehicle without compound were used as negative controls. Plates were kept for 72 h in a 37° C., 5% CO2 incubator. After incubation, viable cells were detected with the CELLTITER 96 AQueous Non-Radioactive Cell Proliferation Assay (Promega), and IC50 values were determined using GraphPad Prism 5 software.
(§3) Antiproliferation of several of the active compounds was tested against additional cell lines.

NCI/ADR-RES cells = experiment: antiproliferation assay, NCI/ADR-RES; type: cell-based; conditions: Homo sapiens
Description: as §2, §3
(§4) Compound 4 was tested for antiproliferation activity against several paclitaxel-resistant human cancer cell lines.

OVCAR-3 cells = experiment: antiproliferation assay, OVCAR-3; type: cell-based; conditions: Homo sapiens
Description: as §2, §3

OVCAR-4 cells = experiment: antiproliferation assay, OVCAR-4; type: cell-based; conditions: Homo sapiens
Description: as §2, §3

UO-31 cells = experiment: antiproliferation assay, paclitaxel-resistant UO-31; type: cell-based; conditions: Homo sapiens
Description: as §2, §4

HCT-15 cells = experiment: antiproliferation assay, paclitaxel-resistant HCT-15; type: cell-based; conditions: Homo sapiens
Description: as §2, §4

[4] = tested on: NCI-H522 (lung) xenograft tumors; experiment: tumor growth inhibition, NCI-H522 murine xenograft model; type: in vivo, mice; conditions: IP 40 mg/kg, days 0,1,2,5,6,7,10,11,12
Description: (§5) Tumor growth inhibition of compound 4 was measured in several murine xenograft models, and the results of individual experiments are listed in Table 14. Tumors were initiated by subcutaneous injection of either tumor cells from cell culture or tumor fragments from continuous in vivo passage. When tumors reached volumes between approximately 100 and 200 mm^3, the mice were divided into vehicle and treatment groups. Compound or vehicle was administered by IP injection in a volume of 5-10 mL/kg.
(§6) Changes in tumor weight (delta weights) for each treated (T) and control (C) group are calculated for each day tumors are measured by subtracting the median tumor weight on the first day of treatment (staging day) from the median tumor weight on the specified observation day. These values are used to calculate a percent T/C as follows: % T/C=(delta T/delta C)×100. The optimal T/C is the minimal value obtained after the first treatment.

[5] = tested on: NCI-H727 xenograft tumors; experiment: tumor growth inhibition, NCI-H727 murine xenograft model; type: in vivo, mice; conditions: IP 40 mg/kg, days 0,1,2,5,6,7,10,11,12
Description: as §5, §6

DU-145 cells = experiment: NCI-60 panel antiproliferation, DU-145; type: cell-based, human; conditions: Homo sapiens, NCI 60-cell panel
Description: (§7) Bifidenone and Compound 37 were tested for antiproliferation activity against the NCI-60 panel of cancer cell lines. COMPARE analysis was then conducted to compare the activity “fingerprint” of bifidenone to those of known classes of compounds (Zhou, B.-N., Hoch, J. M., Johnson, R. K., Mattern, M. R., Eng, W.-K., Ma, J., Hecht, S. M., Newman, D. J., Kingston, D. G. I., 2000. Use of COMPARE Analysis to Discover New Natural Product Drugs: Isolation of Camptothecin and 9-Methoxycamptothecin from a New Source. Journal of Natural Products 63, 1273-1276.).

HL-60 cells = experiment: NCI-60 panel antiproliferation, HL-60; type: cell-based, human; conditions: Homo sapiens, NCI 60-cell panel
Description: as §7

IGR-OV1 cells = experiment: NCI-60 panel antiproliferation, IGR-OV1; type: cell-based, human; conditions: Homo sapiens, IGROV-1, NCI 60-cell panel
Description: as §7

M14 cells = experiment: NCI-60 panel antiproliferation, M14; type: cell-based, human; conditions: Homo sapiens, NCI 60-cell panel
Description: as §7

MALME-3M cells = experiment: NCI-60 panel antiproliferation, MALME-3M; type: cell-based, human; conditions: Homo sapiens, NCI 60-cell panel
Description: as §7

MOLT-4 cells [6] = experiment: NCI-60 panel antiproliferation, MOLT-4; type: cell-based, human; conditions: Homo sapiens, NCI 60-cell panel
Description: as §7

NCI-ADR/RES cells = experiment: NCI-60 panel antiproliferation, NCI-ADR/RES; type: cell-based, human; conditions: Homo sapiens, NCI 60-cell panel
Description: as §7

NCI-H322M cells = experiment: NCI-60 panel antiproliferation, NCI-H322M; type: cell-based, human; conditions: Homo sapiens, NCI 60-cell panel
Description: as §7

NCI-H460 cells = experiment: NCI-60 panel antiproliferation, NCI-H460; type: cell-based, human; conditions: Homo sapiens, NCI 60-cell panel
Description: as §7

NCI-H522 cells = experiment: NCI-60 panel antiproliferation, NCI-H522; type: cell-based, human; conditions: Homo sapiens, NCI 60-cell panel
Description: as §7

OVCAR-8 cells = experiment: NCI-60 panel antiproliferation, OVCAR-8; type: cell-based, human; conditions: Homo sapiens, NCI 60-cell panel
Description: as §7

RPMI-8226 cells = experiment: NCI-60 panel antiproliferation, RPMI-8226; type: cell-based, human; conditions: Homo sapiens, NCI 60-cell panel
Description: as §7

RXF-393 cells = experiment: NCI-60 panel antiproliferation, RXF-393; type: cell-based, human; conditions: Homo sapiens, NCI 60-cell panel
Description: as §7

SF-539 cells = experiment: NCI-60 panel antiproliferation, SF-539; type: cell-based, human; conditions: Homo sapiens, NCI 60-cell panel
Description: as §7

SN12C cells = experiment: NCI-60 panel antiproliferation, SN12C; type: cell-based, human; conditions: Homo sapiens, NCI 60-cell panel
Description: as §7

SNB-19 cells = experiment: NCI-60 panel antiproliferation, SNB-19; type: cell-based, human; conditions: Homo sapiens, NCI 60-cell panel
Description: as §7

SR cells = experiment: NCI-60 panel antiproliferation, SR; type: cell-based, human; conditions: Homo sapiens, NCI 60-cell panel
Description: as §7

UACC-62 cells = experiment: NCI-60 panel antiproliferation, UACC-62; type: cell-based, human; conditions: Homo sapiens, NCI 60-cell panel
Description: as §7

UACC-257 cells = experiment: NCI-60 panel antiproliferation, UACC-257; type: cell-based, human; conditions: Homo sapiens, NCI 60-cell panel
Description: as §7

IC50 ([1]; Table 3): 11 nM
IC50 ([2]; NCI-H460, Table 3, read-out: NCI-H460 IC50): 15 nM
IC50 ([2]; NCI-H460, as quoted in the pharmacokinetics text, read-out: IC50 against NCI-H460 human lung cancer cells): 15 nM
IC50 (MOLT-4 cells [3]): 28 nM
IC50 (OVCAR-3 cells): 12 nM
IC50 (OVCAR-4 cells): 6.4 nM
IC50 (HCT-15 cells): < 5 nM
Compound: C=CC[C@H]1C[C@]2([C@H](C)Cc3cc(O)c(OC)cc3F)OCOC2=CC1=O (relative stereo) [Compound 4, 6-allyl-7a-(1-(2-fluoro-5-hydroxy-4-methoxyphenyl)propan-2-yl)-7,7a-dihydrobenzo[d][1,3]dioxol-5(6H)-one]
IC50 (NCI/ADR-RES cells): 9.1 nM
IC50 (NCI/ADR-RES cells; paclitaxel-resistant NCI/ADR-RES): 9 nM
IC50 (UO-31 cells): 7 nM
Maximum Mean Body Weight Loss [4]: 5%
Optimal T/C [4]: 13%
Maximum Mean Body Weight Loss [5]: 0%
Optimal T/C [5]: 30%

IC50 ([1]; Table 4): 8 nM
IC50 ([2]; NCI-H460, Table 4, read-out: NCI-H460 IC50): 85 nM
Compound: C=CC[C@H]1C[C@]2([C@@H](C)Cc3ccc(OC)c(F)c3)OCOC2=CC1=O [Compound 37, (6S,7aR)-6-allyl-7a-((S)-1-(3-fluoro-4-methoxyphenyl)propan-2-yl)-7,7a-dihydrobenzo[d][1,3]dioxol-5(6H)-one]
IC50 (DU-145 cells): 187 nM
IC50 (HL-60 cells): 36 nM
IC50 (IGR-OV1 cells): 63 nM
IC50 (M14 cells): 59 nM
IC50 (MALME-3M cells): 39 nM
IC50 (MOLT-4 cells [6]): 97 nM
IC50 (NCI-ADR/RES cells): 47 nM
IC50 (NCI-H322M cells): 125 nM
IC50 (NCI-H460 cells): 49 nM
IC50 (NCI-H522 cells): 61 nM
IC50 (OVCAR-8 cells): 110 nM
IC50 (RPMI-8226 cells): 74 nM
IC50 (RXF-393 cells): 95 nM
IC50 (SF-539 cells): 74 nM
IC50 (SN12C cells): 350 nM
IC50 (SNB-19 cells): 73 nM
IC50 (SR cells): 14 nM
IC50 (UACC-62 cells): 35 nM
IC50 (UACC-257 cells): 43 nM
